# Test: Water solubility of the components of the preferred aqueous composition
# Assay type: physicochemical
# Conditions: component of the preferred aqueous composition
# Source text: The film-forming component is designed to be insoluble so that it will form a film on the skin.
compound,measurement,value
OCC(O)CO [Glycerin],Water Solubility,S

# Reference: patent US20100255070A1, “COMPOSITIONS AND METHODS FOR PREVENTING, MINIMIZING AND HEALING SKIN IRRITATION AND TRAUMA” (PRELIEF INC., priority 2007, published 2010)
